Where “and” joins values, the source holds several entries; their conditions need not be identical. Identical values can stand only once.
Columns and labels:
Human alphaherpesvirus 1 [1] = test: Reduction of lesion (from control), in hairless mouse model infected with HVH-1(antiherpes activity); type: functional, herpes simplex virus; design: concentration or dose not given beside the values
Human alphaherpesvirus 1 [2] = test: Average lesion score in hairless mouse model infected with HVH-1(antiherpes activity); type: functional, herpes simplex virus
Human alphaherpesvirus 1 [3] = test: Antiherpes (Type-1) activity in mouse paralysis model expressed as animals paralyzed treated/percent animals paralyzed control (% T/C); type: functional, herpes simplex virus
Mus musculus [4] = species on record: Mus musculus; test: Average lesion score in hairless mouse test against Herpes type-1 at dose of 0.37% in 1.4% aq.polyvinyl alcohol; type: functional
Mus musculus [5] = species on record: Mus musculus; test: Reduction of lesion severity, in hairless mouse test against herpes type-1,at 0.37% dose in 1.4% aq.polyvinyl alcohol; type: functional
Human alphaherpesvirus 1 [6] = test: Reduction of lesion severity, in hairless mouse test against herpes type-1,at 3% dose in 1.4% aq.polyvinyl alcohol; type: functional, herpes simplex virus
Mus musculus [7] = species on record: Mus musculus; test: Average lesion score in hairless mouse test against Herpes type-1 at dose of 1.5% in 1.4% aq.polyvinyl alcohol; type: functional
Mus musculus [8] = species on record: Mus musculus; test: Reduction of lesion severity, in hairless mouse test against herpes type-1,at 1.5% dose in 1.4% aq.polyvinyl alcohol; type: functional
Human alphaherpesvirus 1 [9] = test: Average lesion score in hairless mouse test against Herpes type-1 at dose of 0.75% in 1.4% aq.polyvinyl alcohol; type: functional, herpes simplex virus
Human alphaherpesvirus 1 [10] = test: Average lesion score in hairless mouse test against Herpes type-1 at dose of 3% in 1.4% aq.polyvinyl alcohol; type: functional, herpes simplex virus
Human alphaherpesvirus 1 [11] = test: Reduction of lesion severity, in hairless mouse test against herpes type-1,at 0.75% dose in 1.4% aq.polyvinyl alcohol; type: functional, herpes simplex virus
Mus musculus [12] = species on record: Mus musculus; test: Reduction of lesion severity, in hairless mice test against herpes type-2,at 2% dose in 1.4% aq.polyvinyl alcohol; type: functional
Mus musculus [13] = species on record: Mus musculus; test: Reduction of lesion severity, in hairless mice test against herpes type-2,at 1.5% dose in 1.4% aq.polyvinyl alcohol; type: functional
Mus musculus [14] = species on record: Mus musculus; test: Reduction of lesion severity, in hairless mice test against herpes type-2,at 0.37% dose in 1.4% aq.polyvinyl alcohol; type: functional
Mus musculus [15] = species on record: Mus musculus; test: Reduction of lesion severity, in hairless mice test against herpes type-2,at 0.75% dose in 1.4% aq.polyvinyl alcohol; type: functional
Mus musculus [16] = species on record: Mus musculus; test: Average lesion score in hairless mouse test against Herpes type-1 at dose of 5% in 1.4% aq.polyvinyl alcohol; type: functional
Mus musculus [17] = species on record: Mus musculus; test: Reduction of lesion severity, in hairless mice test against herpes type-2,at 5% dose in 1.4% aq.polyvinyl alcohol; type: functional
Mus musculus [18] = species on record: Mus musculus; test: Reduction of lesion severity, in hairless mouse test against herpes type-1,at 5% dose in 1.4% aq.polyvinyl alcohol; type: functional

SMILES: CN(C)CCC(=O)/C=C/c1ccccc1.Cl
- Reduction (Human alphaherpesvirus 1 [1]): 30%
- Average lesion score (Human alphaherpesvirus 1 [2]): 1.8

SMILES: Cl.OC(/C=C/c1ccccc1)CCN1CCOCC1 (stereo not drawn)
- T/C (Human alphaherpesvirus 1 [3]): 88%

SMILES: O=C(/C=C/c1ccccc1)CCSc1ccccc1
- Reduction (Human alphaherpesvirus 1 [1]): 10%
- Average lesion score (Human alphaherpesvirus 1 [2]): 2.5

SMILES: COc1cccc(/C=C/C(=O)CC[N+](C)(C)C)c1.[I-]
- Reduction (Human alphaherpesvirus 1 [1]): 86%
- Average lesion score (Human alphaherpesvirus 1 [2]): 0.33

SMILES: C[S+]([O-])CCC(=O)/C=C/c1ccccc1 (stereo not drawn)
- Reduction (Human alphaherpesvirus 1 [1]): 48%
- Average lesion score (Human alphaherpesvirus 1 [2]): 1.3

SMILES: CC(C)(C[N+](C)(C)C)C(=O)/C=C/c1ccccc1.[I-]
- Reduction (Human alphaherpesvirus 1 [1]): 13%
- Average lesion score (Human alphaherpesvirus 1 [2]): 2.33

SMILES: O=C(CCc1ccc(Cl)c(Cl)c1)CCN1CCOCC1
- T/C (Human alphaherpesvirus 1 [3]): 50%

SMILES: O=C(/C=C/c1ccccc1)CCNc1ccccc1
- Reduction (Human alphaherpesvirus 1 [1]): 9%
- Average lesion score (Human alphaherpesvirus 1 [2]): 2.67

SMILES: CC(C[N+](C)(C)C)C(=O)/C=C/c1ccccc1.[I-] (stereo not drawn)
- Reduction (Human alphaherpesvirus 1 [1]): 89%
- Average lesion score (Human alphaherpesvirus 1 [2]): 0.33

SMILES: C[S+](C)CCC(=O)/C=C/c1ccccc1.[I-]
- Average lesion score (Mus musculus [4]): 0.67
- Reduction (Human alphaherpesvirus 1 [1]): 82%
- Reduction (Mus musculus [5]): 76%
- Average lesion score (Human alphaherpesvirus 1 [2]): 0.5
- Reduction (Human alphaherpesvirus 1 [6]): 88%
- Average lesion score (Mus musculus [7]): 0.5
- Reduction (Mus musculus [8]): 82%
- Average lesion score (Human alphaherpesvirus 1 [9]): 0.67
- Average lesion score (Human alphaherpesvirus 1 [10]): 0.33
- Reduction (Human alphaherpesvirus 1 [11]): 76%

SMILES: C[N+](C)(C)CCC(=O)/C=C/c1ccccc1.[I-]
- Average lesion score (Mus musculus [4]): 0.67
- Reduction (Human alphaherpesvirus 1 [1]): 64%
- Reduction (Mus musculus [5]): 76%
- Average lesion score (Human alphaherpesvirus 1 [2]): 1
- Reduction (Human alphaherpesvirus 1 [6]): 88%
- Average lesion score (Mus musculus [7]): 0.5
- Reduction (Mus musculus [8]): 82%
- Average lesion score (Human alphaherpesvirus 1 [9]): 0.67
- Average lesion score (Human alphaherpesvirus 1 [10]): 0.33
- Reduction (Human alphaherpesvirus 1 [11]): 76%

SMILES: CCCSCCC(=O)/C=C/c1ccccc1
- Reduction (Human alphaherpesvirus 1 [1]): 0%
- Average lesion score (Human alphaherpesvirus 1 [2]): 2.8

SMILES: CCC[S+](C)CCC(=O)/C=C/c1ccccc1.[I-] (stereo not drawn)
- Reduction (Human alphaherpesvirus 1 [1]): 74%
- Average lesion score (Human alphaherpesvirus 1 [2]): 0.67

SMILES: CCOP(=O)(CCC(=O)/C=C/c1ccccc1)OCC
- Reduction (Human alphaherpesvirus 1 [1]): 10%
- Average lesion score (Human alphaherpesvirus 1 [2]): 2.3

SMILES: CSc1ccc(/C=C/C(=O)CCN2CCOCC2)cc1.Cl
- T/C (Human alphaherpesvirus 1 [3]): 12%

SMILES: Cl.O=C(/C=C/c1cccc(C(F)(F)F)c1)CCN1CCOCC1
- T/C (Human alphaherpesvirus 1 [3]): 11%

SMILES: Cl.N#Cc1ccc(/C=C/C(=O)CCN2CCOCC2)cc1
- T/C (Human alphaherpesvirus 1 [3]): 24%

SMILES: Cl.O=C(/C=C/c1c(Cl)cccc1Cl)CCN1CCOCC1
- T/C (Human alphaherpesvirus 1 [3]): 14%

SMILES: Cl.O=C(/C=C/c1ccc(Cl)c(Cl)c1)CCN1CCOCC1
- Average lesion score (Mus musculus [4]): 0.83
- Reduction (Mus musculus [5]): 67%
- T/C (Human alphaherpesvirus 1 [3]): 0%
- Reduction (Human alphaherpesvirus 1 [6]): 80%
- Average lesion score (Mus musculus [7]): 0.5
- Reduction (Mus musculus [8]): 80%
- Average lesion score (Human alphaherpesvirus 1 [9]): 0.5
- Average lesion score (Human alphaherpesvirus 1 [10]): 0.5
- Reduction (Human alphaherpesvirus 1 [11]): 80%

SMILES: CS(=O)(=O)c1ccc(/C=C/C(=O)CCN2CCOCC2)cc1.Cl
- T/C (Human alphaherpesvirus 1 [3]): 12%

SMILES: Cl.O=C(/C=C/c1ccccc1)CCN1CCOCC1
- Average lesion score (Mus musculus [4]): 0.83
- Reduction (Human alphaherpesvirus 1 [1]): 94%
- Reduction (Mus musculus [5]): 67%
- Average lesion score (Human alphaherpesvirus 1 [2]): 0.17
- T/C (Human alphaherpesvirus 1 [3]): 11%
- Reduction (Human alphaherpesvirus 1 [6]): 87%
- Average lesion score (Mus musculus [7]): 0.55
- Reduction (Mus musculus [12]): 85%
- Reduction (Mus musculus [13]): 78%
- Reduction (Mus musculus [8]): 80%
- Reduction (Mus musculus [14]): 70%
- Average lesion score (Human alphaherpesvirus 1 [9]): 0.83
- Average lesion score (Human alphaherpesvirus 1 [10]): 0.33
- Reduction (Mus musculus [15]): 78%
- Reduction (Human alphaherpesvirus 1 [11]): 67%

SMILES: Cl.O=C(/C=C/c1ccc2c(c1)OCO2)CCN1CCOCC1
- T/C (Human alphaherpesvirus 1 [3]): 14%

SMILES: COc1cccc(/C=C/C(=O)CCN2CCOCC2)c1.Cl
- T/C (Human alphaherpesvirus 1 [3]): 0%

SMILES: Cl.O=C(/C=C/c1ccc(O)cc1)CCN1CCOCC1
- T/C (Human alphaherpesvirus 1 [3]): 63%

SMILES: COc1ccc(/C=C/C(=O)CCN2CCOCC2)cc1.Cl
- T/C (Human alphaherpesvirus 1 [3]): 25%

SMILES: Cl.O=C(/C=C/c1cccc([N+](=O)[O-])c1)CCN1CCOCC1
- T/C (Human alphaherpesvirus 1 [3]): 47%

SMILES: Cl.O=C(/C=C/c1ccc(Cl)cc1)CCN1CCOCC1
- T/C (Human alphaherpesvirus 1 [3]): 12%

SMILES: Cc1ccc(/C=C/C(=O)CCN2CCOCC2)cc1.Cl
- T/C (Human alphaherpesvirus 1 [3]): 38%

SMILES: O=C(O)CP(=O)([O-])[O-].[Na+].[Na+] [DISODIUM CARBOXYMETHYLPHOSPHONATE]
- Average lesion score (Mus musculus [16]): 0.33
- Reduction (Human alphaherpesvirus 1 [1]): 74%
- Reduction (Mus musculus [17]): 78%
- Average lesion score (Human alphaherpesvirus 1 [2]): 0.33
- T/C (Human alphaherpesvirus 1 [3]): 24% and 61%
- Reduction (Human alphaherpesvirus 1 [6]): 69%
- Reduction (Mus musculus [18]): 87%
- Average lesion score (Human alphaherpesvirus 1 [9]): 2.5
- Average lesion score (Human alphaherpesvirus 1 [10]): 0.83
- Reduction (Human alphaherpesvirus 1 [11]): 9%

— ChEMBL document CHEMBL1122349, “Mannich bases of 4-phenyl-3-buten-2-one: a new class of antiherpes agent” (1983)
